According to PMC6017654, “Ionic Liquid-Promoted Synthesis of Novel Chromone-Pyrimidine Coupled Derivatives, Antimicrobial Analysis, Enzyme Assay, Docking Study and Toxicity Study” (Molecules : A Journal of Synthetic Chemistry and Natural …, 2018):
Values after ≈ are worked out from the molar mass of the structure shown. Where two headings read alike, the source gives them in different places.

Assays:
[1] = system: Staphylococcus aureus (NCIM-2901); assay: In vitro antibacterial activity (MIC100, two fold serial dilution, NCCLS); format: cell-based; details: Staphylococcus aureus
Method: (§1) All the synthesized compounds 4(a–f) and 6(a–f) were screened for their in vitro antibacterial activity against Staphylococcus aureus (NCIM-2901), Escherichia coli 1411 (standard laboratory strains) and Escherichia coli SM1411 (an acrAB deficient derivative of 1411). Minimum inhibitory concentration (MIC100) values were determined using methods recommended by National Committee for Clinical Laboratory Standards (NCCLS). Dimethyl sulfoxide (DMSO) was used as solvent control.
(§2) All the synthesized compounds 4(a–f) and 6(a–f) were screened for their in vitro antibacterial activity against Staphylococcus aureus (NCIM-2901) and Escherichia coli 1411 (standard laboratory strains) and Escherichia coli SM1411 (an acrAB deficient derivative of 1411). Minimum inhibitory concentration (MIC100) values were determined using the method recommended by National Committee for Clinical Laboratory Standards (NCCLS). In vitro antibacterial activities of the synthesized compounds 4(a–f) and 6(a–f) were tested in Nutrient Broth (NB) for Bacteria by the two fold serial dilution method. Seeded broth (broth containing microbial spores) was prepared in NB from 24 h old bacterial cultures on nutrient agar (Hi-media) at 37 ± 1 °C. The bacterial suspension was adjusted with sterile saline to a concentration of […]. The synthesized compounds and standard drug D-cycloserine were prepared by two fold serial dilutions to obtain the required concentrations. The tubes were incubated in BOD incubators at 37 ± 1 °C for bacteria. The MICs were recorded by visual observations after 24 h (for bacteria) of incubation.

[2] = system: Escherichia coli SM1411 (an acrAB deficient derivative of 1411); assay: as above; format: cell-based; details: 24 h, read-out: MIC100
Method: as §1, §2

Escherichia coli 1411 = assay: as above; format: cell-based; details: read-out: MIC100
Method: as §1, §2

Aspergillus fumigates = assay: In vitro antifungal activity (MIC100, CLSI/NCCLS); format: cell-based; details: A. fum., average of three readings, read-out: MIC 100
Method: (§3) The newly synthesized derivatives 4(a–f) and 6(a–f) were screened for their in vitro antifungal activity against different yeast and filamentous fungal pathogens. Minimum inhibitory concentration (MIC100) values for in vitro antifungal activity were determined by the methods recommended by National Committee for Clinical Laboratory Standards (NCCLS). Miconazole was used as standard drug. Dimethyl sulfoxide (DMSO) was used as solvent control.
(§4) In vitro antifungal activity was determined as per CLSI (formerly, NCCLS) guidelines. […] The medium yeast nitrogen base was dissolved in phosphate buffer pH 7 and it was autoclaved at 110 °C for 10 min. With each set a growth control without the antifungal agent and solvent control DMSO were included. The fungal strains were freshly sub cultured on to Sabouraud dextrose agar (SDA) and incubated at 25 °C for 72 h. The fungal cells were suspended in sterile distilled water and diluted to get 10^5 cells/mL. Further, ten microlitres of the standardized suspension was inoculated onto the control plates and the media incorporated with the antifungal agents. The inoculated plates were incubated at 25 °C for 48 h. The readings were taken at the end of 48 h and 72 h. The MIC was the lowest concentration of drug preventing growth of macroscopically visible colonies on drug containing plates when there was visible growth on the drug free control plates.

A. flavus = assay: In vitro antifungal activity (MIC100, CLSI/NCCLS); format: cell-based; details: Aspergillus flavus; A. fla.; average of three readings; read-out: MIC 100
Method: as §3, §4

Fusarium oxysporum = assay: In vitro antifungal activity (MIC100, CLSI/NCCLS); format: cell-based; details: F. oxy., average of three readings, read-out: MIC 100
Method: as §3, §4

Candida glabrata = assay: In vitro antifungal activity (MIC100, CLSI/NCCLS); format: cell-based; details: Nakaseomyces glabratus; C. glab.; average of three readings; read-out: MIC 100
Method: as §3, §4

Candida albicans = assay: In vitro antifungal activity (MIC100, CLSI/NCCLS); format: cell-based; details: C. alb., average of three readings, read-out: MIC 100
Method: as §3, §4

Cryptococcus neoformans = assay: In vitro antifungal activity (MIC100, CLSI/NCCLS); format: cell-based; details: C. neo., average of three readings, read-out: MIC 100
Method: as §3, §4

Aspergillus niger = assay: In vitro antifungal activity (MIC100, CLSI/NCCLS); format: cell-based; details: A. nig., average of three readings, read-out: MIC 100
Method: as §3, §4

DdlB from E.coli = DdlB from E.coli (Escherichia coli, UniProt P07862); assay: D-Alanine-D-alanine ligase (DdlB) enzyme inhibition, malachite green method; format: biochemical; details: 37 °C, 30 min incubation, 5% DMSO
Method: The key enzyme involved in the peptidoglycan biosynthesis is D-alanine-D-alanine ligase (Ddl), making it an important target for drug discovery. Inhibition of DdlB as an essential enzyme in either Gram-positive or Gram-negative organisms leads to the loss of cell shape and integrity followed by bacterial death. The synthesized derivatives 4(a–f) and 6(a–f) were tested for their inhibitory activity on DdlB from E.coli. The results are presented as IC50 values.
The D-Ala-adding activity of DdlB ligase was monitored by the detection of orthophosphate generated during the reaction based on the colorimetric malachite green method described by Walsh et al.. […] All the compounds were soluble in the assay mixture containing 5% DMSO. After 30 min of incubation, 100 µL Biomol reagent was added. After 5 min, absorbance was read at 650 nm. Residual activity was calculated with respect to a similar assay without inhibitor. To exclude possible non-specific (promiscuous) inhibitors, representative compounds 4(a–f) and 6(a–f) were also tested in the presence of Tween (0.003%), Triton X-114 (0.005%), and SDS (420 µM), as described by McGovern et al.. No significant differences were found when compared to measurements without detergents.

[3] = NCIM2901, 24 h, read-out: MIC100, S. aureus NCIM-2901, average of three readings

Compound | MIC [1, 3] [µg/mL] | MIC [2] [µg/mL] | MIC (Escherichia coli 1411; Escherichia coli, 1411, 24 h) [µg/mL] | MIC (Aspergillus fumigates) [µg/mL] | MIC (A. flavus) [µg/mL] | MIC (Fusarium oxysporum) [µg/mL] | MIC (Candida glabrata) [µg/mL] | MIC (Candida albicans) [µg/mL] | MIC (Cryptococcus neoformans) [µg/mL] | MIC (Aspergillus niger) [µg/mL] | melting point [°C] | IC50 (DdlB from E.coli) [µM] | MIC ([1]; NCIM2901, S. aureus NCIM-2901, 24 h, average of three readings, read-out: MIC100) [µg/mL] | MIC (Escherichia coli 1411; Escherichia coli, E. coli 1411, 24 h, average of three readings) [µg/mL]
CCOC(=O)C1=C(C)NC(=O)NC1c1coc2ccccc2c1=O (stereo not shown) [Compound 4a, Ethyl 6-methyl-2-oxo-4-(4-oxo-4H-chromen-3-yl)-1,2,3,4-tetrahydropyrimidine-5-carboxylate] | 64 (≈ 195 µM) | 40 (≈ 122 µM) | 46 (≈ 140 µM) | 65 (≈ 198 µM) | 66 (≈ 201 µM) | 82 (≈ 250 µM) | > 100 | > 100 | 60 (≈ 183 µM) | 57 (≈ 174 µM) | 270 to 272 | 158 |  | 
CC1=C(C(=O)NN)C(c2coc3ccccc3c2=O)NC(=O)N1 (stereo not shown) [Compound 6a, 6-Methyl-2-oxo-4-(4-oxo-4H-chromen-3-yl)-1,2,3,4-tetrahydropyrimidine-5-carbohydrazide] | 66 (≈ 210 µM) | 32 (≈ 102 µM) | 34 (≈ 108 µM) | 60 (≈ 191 µM) | 68 (≈ 216 µM) | 76 (≈ 242 µM) | 68 (≈ 216 µM) | 78 (≈ 248 µM) | 58 (≈ 185 µM) | 55 (≈ 175 µM) | 256 to 258 | 127 |  | 
CCOC(=O)C1=C(C)NC(=S)NC1c1coc2ccccc2c1=O (stereo not shown) [Compound 4b, Ethyl 6-methyl-4-(4-oxo-4H-chromen-3-yl)-2-thioxo-1,2,3,4-tetrahydropyrimidine-5-carboxylate] | 68 (≈ 197 µM) | 50 (≈ 145 µM) | 50 (≈ 145 µM) | 60 (≈ 174 µM) | 66 (≈ 192 µM) | 58 (≈ 168 µM) | 66 (≈ 192 µM) | 64 (≈ 186 µM) | 55 (≈ 160 µM) | 52 (≈ 151 µM) | 210 to 212 | 296 |  | 
CCOC(=O)C1=C(C)NC(=S)NC1c1coc2ccc(F)cc2c1=O (stereo not shown) [Compound 4f, Ethyl 4-(6-fluoro-4-oxo-4H-chromen-3-yl)-6-methyl-2-thioxo-1,2,3,4-tetrahydropyrimidine-5-carboxylate] | 72 (≈ 199 µM) | 44 (≈ 121 µM) | 48 (≈ 132 µM) | 55 (≈ 152 µM) | 34 (≈ 93.8 µM) | 48 (≈ 132 µM) | 44 (≈ 121 µM) | 46 (≈ 127 µM) | 30 (≈ 82.8 µM) | 34 (≈ 93.8 µM) | 228 to 230 | 280 |  | 
N[C@@H]1CON=C1O [D-Cycloserine, reference compound] |  | 16 (≈ 157 µM) |  |  |  |  |  |  |  |  |  | 276 | 32 (≈ 313 µM) | 16 (≈ 157 µM)
CC1=C(C(=O)NN)C(c2coc3ccccc3c2=O)NC(=S)N1 (stereo not shown) [Compound 6b, 6-Methyl-4-(4-oxo-4H-chromen-3-yl)-2-thioxo-1,2,3,4-tetrahydropyrimidine-5-carbohydrazide] | 76 (≈ 230 µM) | 34 (≈ 103 µM) | 34 (≈ 103 µM) | 58 (≈ 176 µM) | 60 (≈ 182 µM) | 54 (≈ 163 µM) | 60 (≈ 182 µM) | 64 (≈ 194 µM) | 50 (≈ 151 µM) | 48 (≈ 145 µM) | 198 to 200 | 124 |  | 
